From US7659278B2, “Use of low molecular weight compounds for preparing a medicament useful in treating mutant p53 mediated diseases” (Aprea AB, priority 2002, dated 2010)
Like-named read-outs stand apart in the source and are kept apart here.

Columns and labels:
[1] = tested on: H1299-His-175 lung adenocarcinoma cells; assay: WST-1 growth inhibition by structural analogues, H1299-His-175 cells with or without doxycycline; type: cell-based, human; conditions: for IC50: Homo sapiens, 48 h, WST-1; for R H1299-His175: ratio IC50p53null/IC50mtp53
Protocol: (§1) After 12h cells were treated with analogues and incubated with compounds for 48 h. Then WST-1 cell proliferating reagent was added to each well and cell survival was estimated by reading absorbance at 450 nm by ELISA reader. The effect of structural analogues on cell growth was tested using different concentrations of the compounds, ranging from 0.1; 1; 5; 10 and 25 μM. After that curves of growth inhibition were generated based on a rational function Y=(b+cx)/1+ax by using Microcal Origin software. The coefficients (a,b,c) of the equation were determined by employing Levenberg-Marquardt algorithm.
(§2) The specificity of each compound was determined by calculation of ratio IC50p53null/IC50mtp53. Ratios equal to 1 or less are indicating non-specific activity.

[2] = tested on: Saos-2-His-273 osteosarcoma cells; assay: WST-1 growth inhibition by structural analogues, Saos-2-His-273 cells with or without doxycycline; type: cell-based, human; conditions: for IC50: Homo sapiens, 48 h, WST-1; for R Saos-2His273: ratio IC50p53null/IC50mtp53
Protocol: as §1, §2

[3] = Dox+ (p53 null), read-out: IC50 H1299-His175 Dox+
[4] = Dox− (mutant p53 expressed), read-out: IC50 H1299-His175 Dox−
[5] = Dox+ (p53 null), read-out: IC50 Saos-2His273 Dox+
[6] = Dox− (mutant p53 expressed), read-out: IC50 Saos-2His273 Dox−

Row | SMILES | IC50 [1, 3] | IC50 [1, 4] | R H1299-His175 [1] | IC50 [2, 5] | IC50 [2, 6] | R Saos-2His273 [2]
1 | O=C1C2CCN(CC2)C1CN1C=NC2C(Cl)=NC(Cl)=NC21 (stereo not drawn) [2-(2,6-dichloro-9-methylenepurine)-3-quinuclidinone] | 4.9 µM | 3.2 µM | 1.53 | 6.2 µM | 2.54 µM | 2.44
2 | O=C1C=CC(=O)N1 [maleimide] | 5.2 µM | 3 µM | 1.73 | 7.59 µM | 3.37 µM | 2.25
3 | Cn1c(=O)c2c([nH]c(=O)n2CC2C(=O)C3CCN2CC3)n(C)c1=O (stereo not drawn) [2-(7-methylene-1,3-dimethyluric acid)-3-quinuclidinone] | 5.2 µM | 4.1 µM | 1.26 | 5.51 µM | 2.74 µM | 2.01
4 | COc1ncnc2c1ncn2CC1C(=O)C2CCN1CC2 (stereo not drawn) [2-(6-methoxypurine-9-methylene)-3-quinuclidinone] | 23.2 µM | 15.5 µM | 1.5 | 26 µM | 13.7 µM | 1.9
5 | Cc1cc2ncn(CC3C(=O)C4CCN3CC4)c2cc1C (stereo not drawn) [2-(5,6-dimethyl-benzimidazole-1-methylene)-3-quinuclidinone] | 7.1 µM | 4.75 µM | 1.51 | 9.24 µM | 4 µM | 2.31
6 | CN1C(=O)C=CC1=O [N-methylmaleimide] | 5.4 µM | 2.9 µM | 1.86 | 6.45 µM | 4.04 µM | 1.6
7 | Nc1ncnc2nnn(CC3C(=O)C4CCN3CC4)c12 (stereo not drawn) [2-(8-azaadenine-7-methylene)-3-quinuclidinone] | 4.2 µM | 3.3 µM | 1.27 | 7.27 µM | 2.79 µM | 2.61
8 | C=Cc1nc2ccccc2c(=O)[nH]1 [2-ethylene-4(3H)-quinazolinone] | 3.9 µM | 1.4 µM | 2.8 | 5.05 µM | 3.97 µM | 1.27
